Assay results: US8236756B2, “Prodrugs cleavable by CD26” (Consejo Superior de Investigaciones Clentificas (CSIC), priority 2003, dated 2012)

Legend:
[1] = biological target: T1, purified CD26 (Homo sapiens, UniProt P27487); assay: Conversion of peptide prodrugs to parent compound by purified CD26 (HPLC); type: biochemical; conditions: for Conversion % to parent compound by purified CD26, 1 h / Conversion % to parent compound by purified CD26, 4 h / Conversion % to parent compound by purified CD26, 24 h: Table 1
T1 construct: made in house
Description: To reveal whether CD26 recognizes such synthetic di/tripeptide derivatives of lipophilic nucleoside analogues as a substrate, 50 μM CAM-405 or CAM-431 was exposed to 5.7 mUnits of purified CD26, and the conversion of CAM-405 or CAM-431 to respectively CAM-212 or CAM-403 (Val-NAP-TSAO) was recorded in function of incubation time by HPLC analysis. […] Within the first 10 min of the reaction, at least 20% of CAM-405 had been converted to CAM-212, fifty percent of the TSAO dipeptide derivative was converted to CAM-212 within 30 min of the reaction and ˜67% of CAM-405 was hydrolyse after 60 min. Thus, the reaction rate started already to slow down after the first 10 min of drug exposure (FIG. 2). Most likely, the release of the reaction product Val-Pro dose-dependently feed-back inhibited the CD26-catalysed dipeptidyl-peptidase reaction. […] Thus, in the presence of 50 μM CAM-405, hydrolysis of 50% of CAM-405 to CAM-212 results in the appearance of 25 μM Val-Pro, that is a concentration that (feed-back) inhibits the CD26 reaction by ˜50%. These findings explain why the CD26-catalysed reaction levels-off shortly after the start of the exposure of the drug to CD26. […] Thus, a further level of modulation of the rate of prodrug release can be introduced by choosing a dipeptide moiety that competes for the active site of CD26, until the dipeptide has diffused from the tissue wherein CD26 is present. The inhibitory activity of any dipeptide can be evaluated by the above mentioned assay.
The conversion rate in function of time is given in Table 1 for NAP-TSAO-dipeptides where the dipeptide consists of: Val-Pro, Val-D-Pro, Asp-Pro, Lys-Pro, Tyr-Pro, Gly-Pro, Val-4-hydroxyPro, Gly-3,4-dihydroxyPro, but also Val-Gly, Val-Ala, Val-Leu and Val-Phe. It is clear that the conversion rate to the parent NAP-TSAO differs depending the nature of the dipeptide. Also, when the terminal amine of the dipeptide has been blocked by a lipophilic group (i.e. methyl, Z or Fmoc), the prodrug looses measurable substrate activity for CD26.
The conversion rate in function of time is given in Table 2 for tetrapeptide NAP-TSAO compounds where the tetrapeptide consists of: Val-Pro-Val-Pro [SEQ ID no:6] (CAM 467), Val-Ala-Val-Pro [SEQ ID no:7] (CAM 473) or Lys-Pro-Asp-Pro [SEQ ID no:8] (CAM 477). […] Only traces of dipeptide prodrug (CAM 405) is seen as intermediate in the conversion of the tetrapeptide CAM 473 to NAP-TSAO.
All enzyme activity assays were performed in Eppendorf tubes on a heating block at 37° C. To each tube were added 32 μl CD26 (at a final concentration of 1.5 milliUnits) or 10 μl foetal bovine serum (BS) (final concentration: 2.5% BS in PBS; preheated at 56° C. for 30 min) or 10 μl human serum (HS) (final concentration: 2.5% HS in PBS), 40 μl of appropriate concentrations of inhibitor (Diprotin A) solution in PBS (for the exact concentrations, see the legend to FIG. 5), CAM-405 (the substrate of the reaction) at […] (final concentration) and PBS to reach a total volume of 400 μl. The pH of the reaction mixture was 7.5, which is virtually identical to the physiological pH of plasma. The reaction was started by the addition of the enzyme or serum and carried out at 37° C. After 5 hr, 100 μl reaction mixture was taken from the Eppendorf tube and added to 200 μl cold methanol to precipitate the proteins. After 10 min standing on ice, the contents of the tubes were centrifuged and the supernatants analysed by HPLC on a reverse phase column (RP-8, Merck Laboratories). CAM-405 was separated from CAM-212 (the product of the reaction) by a gradient of 50 mM sodium phosphate+5 mM heptane sulfonic acid pH 3.2 (Buffer A) and acetonitrile (Buffer B) as follows: Buffer A: 98%+2% Buffer B, 2 min; linear gradient to 20% Buffer. […]

[2] = Conversion of prodrugs to parent compound by human serum diluted in PBS; type: in vitro ADME; conditions: 50 μM; 20% human serum in PBS (FIG. 6)
Description: Human and bovine serum were incubated for 3 hr, 6 hr and/or 24 hr at 37° C. in the presence of 50 μM CAM-405. The sera were diluted in PBS at a final concentration of 0.5, 1, 2.5 or 5%. […] The longer the incubation time, and the higher the serum concentration used, the faster the conversion of CAM-405 to CAM-212 occurred (FIG. 4). As also noted for CD26, HS- and BS-catalysed reaction slowed down in function of time, and was not linearly proportional with serum concentration (FIG. 4). These findings provide again evidence for a pronounced feed-back inhibition of dipeptidyl-peptidase activity in human and bovine serum by the released Val-Pro dipeptide. HS was more efficient in converting CAM-405 to CAM-212 than BS (FIG. 4). Since 1% HS is able to hydrolyse ˜20% of 50 μM CAM-405 within 3 hrs of incubation, it could be calculated that undiluted serum would have been able to convert this prodrug amount to its parent compound at a hundred fold higher speed, that is, within 1.8 min, provided that no feed-back inhibition would have occurred (as expected in the intact organism where release of Pro-Val would immediately result in disappearance from the plasma due to several mechanisms including organ uptake, renal excretion, etc.).
Only a very limited amount of NAP-TSAO (but not D-Pro-NAP-TSAO) had been detected (FIG. 6).
Ten percent BS or HS converted 40 to 70% of PI-2 to PI-1 in one hour (FIG. 10). Two percent BS and HS converted PI-2 to PI-1 by 8% and 25%, respectively. After 4 hrs, 35% and 95% of compound was hydrolyzed by BS and HS, respectively (FIG. 11).
The TSAO derivatives depicted in FIG. 1 can be synthesised as described below. GlyPro-pNA (GP-pNA), Diprotin A and Val-Pro were purchased from Sigma-Aldrich (Bornem, Belgium). CD26 was purified as described before [De Meester et al. J. Immunol. Methods (1996), 189: 99-105]. Foetal bovine serum (FBS) was obtained from Integro (Dieren, The Netherlands). Human serum represented a pooled serum that was derived from 10 healthy volunteers (blood donors). Human lymphocyte CEM cells were derived from the ATCC (Rockville, Md.).

[3] = Solubility in Milli-Q water; type: physicochemical; conditions: 1 mg/ml in Milli-Q water; 2 × 10 sec sonication, 4 days shaking, room temperature; centrifugation, U.V. spectrum
From the text: It is also clear that the nature of the dipeptide moiety present on NAP-TSAO markedly affect prodrug solubility in water.

T1 sequence (P27487 whole entry): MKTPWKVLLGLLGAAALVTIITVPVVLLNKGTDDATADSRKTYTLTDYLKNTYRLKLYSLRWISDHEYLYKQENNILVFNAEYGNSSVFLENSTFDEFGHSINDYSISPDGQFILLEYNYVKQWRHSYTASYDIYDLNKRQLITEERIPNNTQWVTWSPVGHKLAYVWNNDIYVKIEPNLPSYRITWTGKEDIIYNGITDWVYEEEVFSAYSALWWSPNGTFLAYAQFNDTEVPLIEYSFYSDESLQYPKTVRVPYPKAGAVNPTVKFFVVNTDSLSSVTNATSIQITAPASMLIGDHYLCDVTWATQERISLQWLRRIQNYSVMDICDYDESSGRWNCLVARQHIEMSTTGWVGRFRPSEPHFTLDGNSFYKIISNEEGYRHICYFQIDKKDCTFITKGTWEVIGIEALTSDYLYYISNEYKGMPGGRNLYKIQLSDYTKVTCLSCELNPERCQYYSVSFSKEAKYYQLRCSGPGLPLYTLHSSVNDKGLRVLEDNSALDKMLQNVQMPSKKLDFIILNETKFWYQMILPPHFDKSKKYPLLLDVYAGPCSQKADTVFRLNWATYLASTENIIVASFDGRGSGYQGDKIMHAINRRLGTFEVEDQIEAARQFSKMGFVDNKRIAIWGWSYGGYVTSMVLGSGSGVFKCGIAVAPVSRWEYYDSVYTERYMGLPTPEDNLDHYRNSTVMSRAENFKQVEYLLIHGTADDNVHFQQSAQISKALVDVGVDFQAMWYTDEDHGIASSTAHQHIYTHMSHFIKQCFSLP

Compound | Conversion % to parent compound by purified CD26, 1 h ([1]; purified CD26 1.5 mUnits, 1 h) [%] | Conversion % to parent compound by purified CD26, 4 h ([1]; purified CD26 1.5 mUnits, 4 h) [%] | Conversion % to parent compound by purified CD26, 24 h ([1]; purified CD26 1.5 mUnits, 24 h) [%] | Conversion by 20% human serum, in words [2] | Spectrum (~265 nm) [3] | % conversion to parent compound by purified CD26, 1 h ([1]; Table 2, purified CD26 1.5 mUnits, 1 h) [%] | % conversion to parent compound by purified CD26, 4 h ([1]; Table 2, purified CD26 1.5 mUnits, 4 h) [%] | % conversion to parent compound by purified CD26, 24 h ([1]; Table 2, purified CD26 1.5 mUnits, 24 h) [%] | Conversion / substrate activity with purified CD26, in words ([1]; purified CD26)
Cc1cn(C2OC(CO[Si](C)(C)C(C)(C)C)C3(OS(=O)(=O)C=C3N)C2O[Si](C)(C)C(C)(C)C)c(=O)n(CCCNC(=O)CNC(=O)[C@@H](N)C(C)C)c1=O (stereo partly drawn) [CAM-422, H-Val-Gly-NAP-TSAO] | 0 | 0 | 0 | efficiently (but solely) converted to Gly-NAP-TSAO | 1.886 | – | – | – | –
Cc1cn(C2OC(CO[Si](C)(C)C(C)(C)C)C3(OS(=O)(=O)C=C3N)C2O[Si](C)(C)C(C)(C)C)c(=O)n(CCCNC(=O)[C@H](C)NC(=O)[C@@H](N)C(C)C)c1=O (stereo partly drawn) [CAM-424, H-Val-Ala-NAP-TSAO] | 0 | 6.5 | 35 | – | 0.650 | 0 | 6.5 | 35 | –
Cc1cn(C2OC(CO[Si](C)(C)C(C)(C)C)C3(OS(=O)(=O)C=C3N)C2O[Si](C)(C)C(C)(C)C)c(=O)n(CCCNC(=O)C(CC(C)C)NC(=O)C(N)C(C)C)c1=O (stereo not drawn) [CAM-426, H-Val-Leu-NAP-TSAO] | 0 | 0 | 0 | convert to a limited extent | – | – | – | – | –
Cc1cn(C2OC(CO[Si](C)(C)C(C)(C)C)C3(OS(=O)(=O)C=C3N)C2O[Si](C)(C)C(C)(C)C)c(=O)n(CCCNC(=O)C(Cc2ccccc2)NC(=O)C(N)C(C)C)c1=O (stereo not drawn) [CAM-428, H-Val-Phe-NAP-TSAO] | 0 | 0 | 0 | convert to a limited extent | – | – | – | – | –
Cc1cn(C2OC(CO[Si](C)(C)C(C)(C)C)C3(OS(=O)(=O)C=C3N)C2O[Si](C)(C)C(C)(C)C)c(=O)n(CCCNC(=O)[C@H]2CCCN2C(=O)[C@@H](N)C(C)C)c1=O (stereo partly drawn) [CAM-430, H-Val-D-Pro-NAP-TSAO] | 0 | ~1 | ~2 | very stable | 3.220 | – | – | – | –
Cc1cn(C2OC(CO[Si](C)(C)C(C)(C)C)C3(OS(=O)(=O)C=C3N)C2O[Si](C)(C)C(C)(C)C)c(=O)n(CCCNC(=O)C(NC(=O)C2CCCN2C(=O)C(N)C(C)C)C(C)C)c1=O (stereo not drawn) [CAM-431, H-Val-Pro-Val-NAP-TSAO] | – | 51 | ~70 | very efficiently converted predominantly to Val-TSAO | – | – | – | – | hydrolyse by CD26
Cc1cn([C@@H]2O[C@H](CO[Si](C)(C)C(C)(C)C)[C@@]3(OS(=O)(=O)C=C3N)[C@H]2O[Si](C)(C)C(C)(C)C)c(=O)n(C)c1=O [m-3T-TSAO, 3-methyl-TSAO-T, reference compound] | – | – | – | – | 0.100 | – | – | – | –
